assay: Average particle diameter of preparation (Zetasizer Nano ZS); format: physicochemical; settings: Comparative Examples 1 to 8, prepared as Example 118 with apo-b siRNA
Text: Preparations were produced using the compounds obtained in Examples 1 to 117, as follows.
APO-B siRNA was used as the nucleic acid. APO-B siRNA suppresses expression of an apolipoprotein-B (hereinafter, “apo-b”) gene and has a sense strand with the base sequence 5′-GmUCAmUCACACmUGAAmUACCAAmU-3′ (the sugars attached to the bases appended with m are 2′-O-methyl-substituted riboses), and an antisense strand with the base sequence 5′-[…]-3′ (the 5′-end is phosphorylated). The sense strand and the antisense strand were obtained from Nippon EGT, GeneDesign, Inc., Invitrogen or Hokkaido System Science Co., Ltd., and annealed to prepare the nucleic acid (hereinafter, “apo-b siRNA”).
A solution comprising the constituent components was prepared by dissolving each of the weighed samples in 90 vol % ethanol in 8.947/1.059/5.708/13.697 mmol/L [compounds 1 to 117 obtained in Examples 1 to 117/sodium 1,2-dimyristoyl-sn-glycero-3-phosphoethanolamine-N-(methoxy(polyethylene glycol)-2000) (PEG-DMPE Na,N-(carbonylmethoxypolyethylene glycol 2000)-1,2-dimyristoyl-sn-glycero-3-phosphoethanolamine sodium salt, NOF Corporation)/distearoylphosphatidyl choline (DSPC, 1,2-distearoyl-sn-glycero-3-phosphocholine, NOF Corporation)/cholesterol (Avanti Polar Lipids)]. Separately, apo-b siRNA/distilled water (24 mg/mL) was diluted with a Tris-EDTA buffer (200 mM Tris-HCl, 20 mM EDTA, Invitrogen) and a 20 mM citric acid buffer (pH 5.0) to prepare a 1.5 mg/mL apo-b siRNA aqueous solution (2 mM Tris-EDTA/20 mM citric acid buffer, pH 5.0).
The resulting lipid solution was heated to 37° C., and a 100-μL portion was transferred to a preparation container. The apo-b siRNA aqueous solution (100 μL) was then added thereto while being stirred. Then, a 20 mM citric acid buffer (containing 300 mM NaCl, pH 6.0; 200 μL) was added to the lipid nucleic acid mixed suspension (200 μL) while being stirred. The siRNA concentration was brought to 10 μM by dropping a Dulbecco phosphate buffer (DPBS, Invitrogen; 662 μL), and preparations (compositions comprising compounds 1 to 117 and the nucleic acid) were obtained.
The average particle diameter of the complex between the cationic lipis and the nucleic acid in each preparation was measured with a particle diameter measurement device (Malvern; Zetasizer Nano ZS).

| average particle diameter of the complex between the cationic lipis and the nucleic acid in the preparation [nm] | Compound |
| --- | --- |
| 167.8 | CCCCC/C=C\C/C=C\CCCCCCCCOC1CN(Cc2ccccc2)C[C@H]1OCCCCCCCC/C=C\C/C=C\CCCCC (stereo in doubt) [Compound VI-3, (3R,4R)-1-Benzyl-3,4-bis((9Z,12Z)-octadec-9,12-dienyloxy)pyrrolidine, reference compound] |

same assay, conditions: average particle diameter of cationic lipid/nucleic acid complex; Example 118 preparation: compound/PEG-DMPE Na/DSPC/cholesterol with apo-b siRNA

| Particle diameter of Preparetion [nm] | Compound |
| --- | --- |
| 143.5 | CCCCCC/C=C\CCCCCCCCOC[C@@H]1CNC[C@H]1COCCCCCCCC/C=C\CCCCCC (relative stereo) [Compound 44, trans-3,4-bis(((Z)-Hexadec-9-enyloxy)methyl)pyrrolidine] |
| 123.9 | CCCCCC/C=C\CCCCCCCCOC[C@@H]1CN(C)C[C@H]1COCCCCCCCC/C=C\CCCCCC (relative stereo) [Compound 51, trans-3,4-bis(((Z)-Hexadec-9-enyloxy)methyl)-1-methylpyrrolidine] |
| 148.7 | CCCCCCCC/C=C\CCCCCCCCOC[C@@H]1CNC[C@H]1COCCCCCCCC/C=C\CCCCCCCC (relative stereo) [Compound 101, trans-3,4-bis(((Z)-Octadec-9-enyloxy)methyl)pyrrolidine] |
| 133.0 | CCCCC/C=C\C/C=C\CCCCCCCCOC[C@@H]1CNC[C@H]1COCCCCCCCC/C=C\C/C=C\CCCCC (relative stereo) [Compound 102, trans-3,4-bis(((9Z,12Z)-Octadec-9,12-dienyloxy)methyl)pyrrolidine] |
| 141.8 | CCCCC/C=C\C/C=C\CCCCCCCCCCOC[C@@H]1CNC[C@H]1COCCCCCCCCCC/C=C\C/C=C\CCCCC (relative stereo) [Compound 103, trans-3,4-bis(((11Z,14Z)-Icos-11,14-dienyloxy)methyl)pyrrolidine] |
| 141.5 | CCCCCCCC/C=C\CCCCCCCC(=O)OC[C@@H]1CNC[C@H]1COC(=O)CCCCCCC/C=C\CCCCCCCC (relative stereo) [Compound 104, trans-3,4-bis(((Z)-Octadec-9-enoyloxy)methyl)pyrrolidine] |
| 125.6 | CCCCC/C=C\C/C=C\CCCCCCCC(=O)OC[C@@H]1CNC[C@H]1COC(=O)CCCCCCC/C=C\C/C=C\CCCCC (relative stereo) [Compound 105, trans-3,4-bis(((9Z,12Z)-Octadec-9,12-dienoyloxy)methyl)pyrrolidine] |
| 139.2 | CCCCCCCC/C=C\CCCCCCCCOC[C@@H]1CN(C)C[C@H]1COCCCCCCCC/C=C\CCCCCCCC (relative stereo) [Compound 106, trans-1-Methyl-3,4-bis(((Z)-octadec-9-enyloxy)methyl)pyrrolidine] |
| 139.1 | CCCCC/C=C\C/C=C\CCCCCCCCOC[C@@H]1CN(C)C[C@H]1COCCCCCCCC/C=C\C/C=C\CCCCC (relative stereo) [Compound 107, trans-1-Methyl-3,4-bis(((9Z,12Z)-octadec-9,12-dienyloxy)methyl)pyrrolidine] |
| 144.9 | CCCCC/C=C\C/C=C\CCCCCCCCCCOC[C@@H]1CN(C)C[C@H]1COCCCCCCCCCC/C=C\C/C=C\CCCCC (relative stereo) [Compound 108, trans-3,4-bis(((11Z,14Z)-Icos-11,14-dienyloxy)methyl)-1-methylpyrrolidine] |
| 129.6 | CCCCCCCC/C=C\CCCCCCCC(=O)OC[C@@H]1CN(C)C[C@H]1COC(=O)CCCCCCC/C=C\CCCCCCCC (relative stereo) [Compound 109, trans-1-Methyl-3,4-bis(((Z)-octadec-9-enoyloxy)methyl)pyrrolidine] |
| 112.0 | CCCCCCCC/C=C\CCCCCCCCOC[C@@H]1C[N+](C)(C)C[C@H]1COCCCCCCCC/C=C\CCCCCCCC.[Cl-] (relative stereo) [Compound 111, trans-1,1-Dimethyl-3,4-bis(((Z)-octadec-9-enyloxy)methyl)pyrrolidinium chloride] |
| 119.2 | CCCCC/C=C\C/C=C\CCCCCCCCOC[C@@H]1C[N+](C)(C)C[C@H]1COCCCCCCCC/C=C\C/C=C\CCCCC.[Cl-] (relative stereo) [Compound 112, trans-1,1-Dimethyl-3,4-bis(((9Z,12Z)-octadec-9,12-dienyloxy)methyl)pyrrolidinium chloride] |
| 103.5 | CCCCCCCC/C=C\CCCCCCCC(=O)OC[C@@H]1C[N+](C)(C)C[C@H]1COC(=O)CCCCCCC/C=C\CCCCCCCC.[Cl-] (relative stereo) [Compound 113, trans-1,1-Dimethyl-3,4-bis(((Z)-octadec-9-enoyloxy)methyl)pyrrolidinium chloride] |
| 108.2 | CCCCC/C=C\C/C=C\CCCCCCCC(=O)OC[C@@H]1C[N+](C)(C)C[C@H]1COC(=O)CCCCCCC/C=C\C/C=C\CCCCC.[Cl-] (relative stereo) [Compound 114, trans-1,1-Dimethyl-3,4-bis(((9Z,12Z)-octadec-9,12-dienoyloxy)methyl)pyrrolidinium chloride] |
| 150.0 | CCCCC/C=C\C/C=C\CCCCCCCCO[C@H]1CNC[C@@H]1OCCCCCCCC/C=C\C/C=C\CCCCC (stereo in doubt) [Compound 43, (3S,4S)-3,4-bis((9Z,12Z)-Octadec-9,12-dienyloxy)pyrrolidine] |
| 129.2 | CCCCC/C=C\C/C=C\CCCCCCCCO[C@H]1CN(C)C[C@@H]1OCCCCCCCC/C=C\C/C=C\CCCCC (stereo in doubt) [Compound 50, (3S,4S)-1-Methyl-3,4-bis((9Z,12Z)-octadec-9,12-dienyloxy)pyrrolidine] |
| 137.4 | CCCCC/C=C\C/C=C\CCCCCCCCO[C@@H]1CNC[C@H]1OCCCCCCCC/C=C\C/C=C\CCCCC [Compound 1, (3R,4R)-3,4-bis((9Z,12Z)-Octadec-9,12-dienyloxy)pyrrolidine] |
| 139.6 | CCCCC/C=C\C/C=C\CCCCCCCC(=O)O[C@@H]1CNC[C@H]1OC(=O)CCCCCCC/C=C\C/C=C\CCCCC [Compound 2, (3R,4R)-Pyrrolidine-3,4-diyl di((9Z,12Z)-octadec-9,12-dienoate)] |
| 152.8 | CCCCC/C=C\C/C=C\CCCCCCCCO[C@H]1CNC[C@H]1OCCCCCCCC/C=C\C/C=C\CCCCC [Compound 3, (3R,4S)-3,4-bis((9Z,12Z)-Octadec-9,12-dienyloxy)pyrrolidine] |
| 160.6 | CCCCCCCC/C=C\CCCCCCCCO[C@@H]1CNC[C@H]1OCCCCCCCC/C=C\CCCCCCCC [Compound 4, (3R,4R)-3,4-bis((Z)-Octadec-9-enyloxy)pyrrolidine] |
| 154.2 | CCCCCCCCCCCCCCO[C@@H]1CNC[C@H]1OCCCCCCCCCCCCCC [Compound 5, (3R,4R)-3,4-bis(Tetradecyloxy)pyrrolidine] |
| 140.3 | CCCCCC/C=C\CCCCCCCCO[C@@H]1CNC[C@H]1OCCCCCCCC/C=C\CCCCCC [Compound 6, (3R,4R)-3,4-bis((Z)-Hexadec-9-enyloxy)pyrrolidine] |
| 148.7 | CCCCCCCCCCC/C=C\CCCCCO[C@@H]1CNC[C@H]1OCCCCC/C=C\CCCCCCCCCCC [Compound 7, (3R,4R)-3,4-bis((Z)-Octadec-6-enyloxy)pyrrolidine] |
| 143.8 | CCCCC/C=C\C/C=C\CCCCCCCCCCO[C@@H]1CNC[C@H]1OCCCCCCCCCC/C=C\C/C=C\CCCCC [Compound 8, (3R,4R)-3,4-bis((11Z,14Z)-Icos-11,14-dienyloxy)pyrrolidine] |
| 153.9 | CCCCC/C=C\C/C=C\CCCCCCCCO[C@@H]1CN(C)C[C@H]1OCCCCCCCC/C=C\C/C=C\CCCCC [Compound 10, (3R,4R)-1-Methyl-3,4-bis((9Z,12Z)-octadec-9,12-dienyloxy)pyrrolidine] |
| 135.8 | CCCCC/C=C\C/C=C\CCCCCCCCO[C@H]1CN(C)C[C@H]1OCCCCCCCC/C=C\C/C=C\CCCCC [Compound 11, (3R,4S)-1-Methyl-3,4-bis((9Z,12Z)-octadec-9,12-dienyloxy)pyrrolidine] |
| 161.3 | CCCCCCCC/C=C\CCCCCCCCO[C@@H]1CN(C)C[C@H]1OCCCCCCCC/C=C\CCCCCCCC [Compound 12, (3R,4R)-1-Methyl-3,4-bis((Z)-octadec-9-enyloxy)pyrrolidine] |

| Compound | Particle diameter of Preparetion [nm] |
| --- | --- |
| CCCCCCCC/C=C\CCCCCCCC(=O)O[C@@H]1CNC[C@H]1OC(=O)CCCCCCC/C=C\CCCCCCCC [Compound 9, (3R,4R)-Pyrrolidine-3,4-diyl di((Z)-octadec-9-enoate)] | 141.9 |
